Experimental findings from PMC10350927 (Journal of Medicinal Chemistry, 2023) are described below.

Residue numbers refer to the chain shown, from its start. Structures can show the parent of a compound that is named as a salt. Marks after values point to notes of the source that are not given here.

The target of test [1] is T1, hSUCNR1 (Homo sapiens, UniProt Q9BXA5).
T1 sequence (Q9BXA5 1-334): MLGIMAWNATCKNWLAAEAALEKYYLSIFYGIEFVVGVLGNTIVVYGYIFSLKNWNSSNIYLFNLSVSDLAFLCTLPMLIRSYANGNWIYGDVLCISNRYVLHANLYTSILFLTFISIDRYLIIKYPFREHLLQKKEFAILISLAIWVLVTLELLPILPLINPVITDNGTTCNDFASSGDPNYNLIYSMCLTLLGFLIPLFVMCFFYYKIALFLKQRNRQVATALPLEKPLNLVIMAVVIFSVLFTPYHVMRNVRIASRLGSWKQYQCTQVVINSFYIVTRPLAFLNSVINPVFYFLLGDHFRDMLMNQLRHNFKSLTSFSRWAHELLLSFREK
The test can be described thus: BRET competition binding using 22 as tracer, hSUCNR1. To be noted: 3 μM 22, Kd = 990 nM; mean ± SEM, three experiments. (BRET reads energy transfer from a luciferase to a nearby fluorophore.)

In test [2] the target is T2, mSUCNR1 (Mus musculus, UniProt Q99MT6).
T2 sequence (Q99MT6 1-317): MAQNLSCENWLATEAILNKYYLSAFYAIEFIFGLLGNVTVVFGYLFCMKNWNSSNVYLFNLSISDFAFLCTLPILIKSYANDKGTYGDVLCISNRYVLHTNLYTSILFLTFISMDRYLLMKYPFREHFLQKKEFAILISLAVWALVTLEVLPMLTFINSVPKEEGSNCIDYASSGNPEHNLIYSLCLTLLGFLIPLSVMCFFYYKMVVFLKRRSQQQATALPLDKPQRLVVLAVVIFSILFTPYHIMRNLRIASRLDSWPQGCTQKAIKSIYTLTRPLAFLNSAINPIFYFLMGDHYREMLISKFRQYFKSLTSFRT
The test is described as follows: BRET competition binding using 22 as tracer, mSUCNR1. The settings on record: 1 μM 22, Kd = […]; highest unlabeled ligand 30 μΜ.

Test [3] addresses T3, hmSUCNR1 (Mus musculus, UniProt Q99MT6, G84W/K269N/N18E).
T3 sequence (Q99MT6 1-317 N18E/G84W/K269N): T2 sequence (Q99MT6 1-317) with N18E, G84W, K269N
The test can be described thus: BRET competition binding using 22 as tracer, hmSUCNR1.

Test [4] concerns the target T3, hmSUCNR1. The test is described as follows: BRET competition binding using 46 as tracer, hmSUCNR1.
Test [5] has as its target T2, mSUCNR1. The test can be described thus: cAMP assay, agonist potency at mSUCNR1. Format: cell-based. Also on record: expressed in transfected cells; host or cells: Flp-In T-REx 293. The settings on record: for cAMP mSUCNR1 pEC50: Flp-In T-REx 293 cells, mean ± SEM, minimum three independent experiments.
Test [6] deals with T1, hSUCNR1. The test is described as follows: BRET competition binding using 46 as tracer, hSUCNR1. The settings on record: […] 46, Kd = 310 nM.
Test [7] has as its target T1, hSUCNR1. The test can be described thus: cAMP assay, inhibition of succinate response at hSUCNR1. Format: cell-based. Details: expressed in transfected cells; host or cells: Flp-In T-REx 293. The settings on record: for cAMP hSUCNR1 pIC50: inhibition of […] succinate response, mean ± SEM.

For the compound `O=C(O)CCc1cccc(Oc2ccc(Oc3cccc4cnccc34)cc2C(F)(F)F)c1` [Compound 48], the “Competion binding using 22 hSUCNR1 pKi” value at hSUCNR1 [1] was 5.9 ± 0.5. The “Competion binding using 22 mSUCNR1 pKi” value on mSUCNR1 [2] is reported as <4.5 ^d. In addition, the Ki at hmSUCNR1 [3] and on hmSUCNR1 [4] was > 31.6 µM throughout.
Consider `CC(C)(C)OC(=O)NCCCCOc1ccc(-c2ccc(C(=O)N[C@@H](CC(=O)O)C(=O)O)o2)cc1` [Compound 8b, (5-(4-(4-((tert-Butoxycarbonyl)amino)butoxy)phenyl)furan-2-carbonyl)-L-aspartic acid], for which the “cAMP mSUCNR1 pEC50” value at mSUCNR1 [5] stood at 6.47 ± 0.18.
For the compound `CN(C)CCCCCCOc1ccc(-c2ccc(C(=O)N[C@@H](CC(=O)O)C(=O)O)o2)cc1` [Compound 21, (S)-6-(4-(5-((1,2-Dicarboxyethyl)carbamoyl)furan-2-yl)phenoxy)-N,N-dimethylhexan-1-aminium 2,2,2-trifluoroacetate], the “cAMP mSUCNR1 pEC50” value on mSUCNR1 [5] is 7.20 ± 0.02.
Same read-out and setting: the result for `CC(C)(C)OC(=O)NCCCCCCOc1ccc(-c2cccc(C(=O)N[C@@H](CC(=O)O)C(=O)O)n2)cc1` [Compound 15d, (6-(4-((6-((tert-Butoxycarbonyl)amino)hexyl)oxy)phenyl)picolinoyl)-L-aspartic acid] reads 5.76 ± 0.07.
`O=C(O)C[C@H](NC(=O)c1cccc(-c2ccc(OC(F)(F)F)cc2)n1)C(=O)O` [Compound 3]: the “Competion binding using 22 mSUCNR1 pKi” value on mSUCNR1 [2] turned out to be 5.8 ± 0.1. Besides, the “cAMP mSUCNR1 pEC50” value at mSUCNR1 [5] is 6.58 ± 0.16.
Regarding `CC(C)(C)OC(=O)NCCCCCOc1ccc(-c2ccc(C(=O)N[C@@H](CC(=O)O)C(=O)O)o2)cc1` [Compound 8c, (5-(4-((5-((tert-Butoxycarbonyl)amino)pentyl)oxy)phenyl)furan-2-carbonyl)-L-aspartic acid], the “cAMP mSUCNR1 pEC50” value at mSUCNR1 [5] is 6.60 ± 0.16. In addition, the “fold decrease in potency on mSUCNR1” value at mSUCNR1 [5] (relative to agonist scaffold 2) was 2.5 fold.
As to `CC(C)(C)OC(=O)NCCCCCOc1ccc(-c2cccc(C(=O)N[C@@H](CC(=O)O)C(=O)O)n2)cc1` [Compound 15c, (6-(4-((5-((tert-Butoxycarbonyl)amino)pentyl)oxy)phenyl)picolinoyl)-L-aspartic acid], on mSUCNR1 [5], the “cAMP mSUCNR1 pEC50” value turned out to be 5.68 ± 0.11.
Take `O=C(O)[C@H]1O[C@H]1C(=O)O` [Compound 47, cis-epoxysuccinic acid]: the “Competion binding using 22 hSUCNR1 pKi” value on hSUCNR1 [1] amounted to 4.1 ± 0.1. At hSUCNR1 [6], the “Competion binding using 46 hSUCNR1 pKi” value amounted to 4.1 ± 0.3.
For `CC(C)(C)OC(=O)NCCOCCOc1ccc(-c2cccc(C(=O)N[C@@H](CC(=O)O)C(=O)O)n2)cc1` [Compound 15e, (6-(4-(2-(2-((tert-Butoxycarbonyl)amino)ethoxy)ethoxy)phenyl)picolinoyl)-L-aspartic acid], the “cAMP mSUCNR1 pEC50” value at mSUCNR1 [5] is given as 6.01 ± 0.18.
`NCCCOc1ccc(-c2ccc(C(=O)N[C@@H](CC(=O)O)C(=O)O)o2)cc1` [Compound 9a, (S)-3-(4-(5-((1,2-Dicarboxyethyl)carbamoyl)furan-2-yl)phenoxy)propan-1-aminium 2,2,2-trifluoroacetate]: the “cAMP mSUCNR1 pEC50” value at mSUCNR1 [5] is 7.10 ± 0.11.
In the case of `CC(C)(C)OC(=O)NCCNCCCCCCOc1ccc(-c2ccc(C(=O)N[C@@H](CC(=O)O)C(=O)O)o2)cc1` [Compound 17, (S)-N-(2-((tert-Butoxycarbonyl)amino)ethyl)-6-(4-(5-((1,2-dicarboxyethyl)carbamoyl)furan-2-yl)phenoxy)hexan-1-aminium 2,2,2-trifluoroacetate], the “cAMP mSUCNR1 pEC50” value on mSUCNR1 [5] amounted to 7.40 ± 0.11.
Turning to `NCCCCOc1ccc(-c2ccc(C(=O)N[C@@H](CC(=O)O)C(=O)O)o2)cc1` [Compound 9b, (5-(4-(4-Aminobutoxy)phenyl)furan-2-carbonyl)-L-aspartic acid hydrochloride], the “cAMP mSUCNR1 pEC50” value at mSUCNR1 [5] was determined as 7.13 ± 0.06.
In the case of `Cc1ccc(C(=O)Nc2ccccc2CC(=O)O)cc1-c1ccc(Cl)cc1` [Compound 34, 2-(2-(4′-Chloro-6-methyl-[1,1′-biphenyl]-3-carboxamido)phenyl)acetic acid], on hSUCNR1 [7] (hSUCNR1 cAMP), the “fold increase in potency relative to 32” value stood at 3 fold. For the same compound, the “cAMP hSUCNR1 pIC50” value on hSUCNR1 [7] is 6.78 ± 0.01.
For the compound `Cc1cc(CN2CCN(C)CC2)ccc1-c1cccc(C(=O)Nc2ccccc2CC(=O)O)c1` [Compound 44, 4-((3′-((2-(Carboxymethyl)phenyl)carbamoyl)-2-methyl-[1,1′-biphenyl]-4-yl)methyl)-1-methylpiperazin-1-ium 2,2,2-trifluoroacetate], the “Competion binding using 22 mSUCNR1 pKi” value on mSUCNR1 [2] is given as <4.5 ^d.
For `NCCCCCOc1ccc(-c2ccc(C(=O)N[C@@H](CC(=O)O)C(=O)O)o2)cc1` [Compound 9c, (S)-5-(4-(5-((1,2-Dicarboxyethyl)carbamoyl)furan-2-yl)phenoxy)pentan-1-aminium 2,2,2-trifluoroacetate], the “cAMP mSUCNR1 pEC50” value on mSUCNR1 [5] is 6.91 ± 0.09.
Still for that read-out and setting: the same measure for `CC(C)(C)OC(=O)NCCCCOc1ccc(-c2cccc(C(=O)N[C@@H](CC(=O)O)C(=O)O)n2)cc1` [Compound 15b, (6-(4-(4-((tert-Butoxycarbonyl)amino)butoxy)phenyl)picolinoyl)-L-aspartic acid]: 5.97 ± 0.09.
Still for that read-out and setting: the result for `CC(C)(C)OC(=O)NCCCCCCOc1ccc(-c2ccc(C(=O)N[C@@H](CC(=O)O)C(=O)O)o2)cc1` [Compound 8d, (5-(4-((6-((tert-Butoxycarbonyl)amino)hexyl)oxy)phenyl)furan-2-carbonyl)-L-aspartic acid] reads 6.42 ± 0.11.
As to `CCOc1ccc(-c2ccc(C(=O)N[C@@H](CC(=O)O)C(=O)O)o2)cc1` [Compound 2], the “Competion binding using 22 mSUCNR1 pKi” value on mSUCNR1 [2] is on record as 6.2 ± 0.1. Besides, at mSUCNR1 [5], the “cAMP mSUCNR1 pEC50” value is on record as 7.01 ± 0.04.
As for `Cc1cc(Cl)ccc1-c1cccc(C(=O)Nc2ccccc2CC(=O)O)c1` [Compound 35, 2-(2-(4′-Chloro-2′-methyl-[1,1′-biphenyl]-3-carboxamido)phenyl)acetic acid], on mSUCNR1 [2], the “Competion binding using 22 mSUCNR1 pKi” value was <4.5 ^d.
Consider `CC(C)(C)OC(=O)NCCCOc1ccc(-c2cccc(C(=O)N[C@@H](CC(=O)O)C(=O)O)n2)cc1` [Compound 15a, (6-(4-(3-((tert-Butoxycarbonyl)amino)propoxy)phenyl)picolinoyl)-L-aspartic acid], for which, on mSUCNR1 [5], the “cAMP mSUCNR1 pEC50” value is reported as 5.90 ± 0.08.
`NCCCCCCOc1ccc(-c2ccc(C(=O)N[C@@H](CC(=O)O)C(=O)O)o2)cc1` [Compound 9d, (S)-6-(4-(5-((1,2-Dicarboxyethyl)carbamoyl)furan-2-yl)phenoxy)hexan-1-aminium 2,2,2-trifluoroacetate]: the “Competion binding using 22 mSUCNR1 pKi” value on mSUCNR1 [2] was found to be 6.2 ± 0.1.
As to `CC(C)(C)OC(=O)NCCN1CCN(Cc2ccc(-c3cccc(C(=O)Nc4ccccc4CC(=O)O)c3)cc2)CC1` [Compound 43, 1-(2-((tert-Butoxycarbonyl)amino)ethyl)-4-((3′-((2-(carboxymethyl)phenyl)carbamoyl)-[1,1′-biphenyl]-4-yl)methyl)piperazin-1-ium 2,2,2-trifluoroacetate], the “cAMP hSUCNR1 pIC50” value at hSUCNR1 [7] amounted to 6.82 ± 0.02.
For the compound `CC(C)(C)OC(=O)NCCCOc1ccc(-c2ccc(C(=O)N[C@@H](CC(=O)O)C(=O)O)o2)cc1` [Compound 8a, (5-(4-(3-((tert-Butoxycarbonyl)amino)propoxy)phenyl)furan-2-carbonyl)-L-aspartic acid], at mSUCNR1 [5], the “cAMP mSUCNR1 pEC50” value is on record as 6.25 ± 0.09.
The same measure, in the same setting: the same measure for `CNCCCCCCOc1ccc(-c2ccc(C(=O)N[C@@H](CC(=O)O)C(=O)O)o2)cc1` [Compound 20, (S)-6-(4-(5-((1,2-Dicarboxyethyl)carbamoyl)furan-2-yl)phenoxy)-N-methylhexan-1-aminium 2,2,2-trifluoroacetate]: 7.35 ± 0.05.
